# Data from patent publication US11205502B2, “Processing method and processing apparatus for efficacy of combined drug” (Institute of radiation medicine, academy of military …, priority 2015, dated 2021).
# Tested on: human hepatocellular carcinoma cell HepG2
# Assay: MTT method, growth inhibition of HepG2 by NX, TX and NX/TX combined application; expected additive effect by equivalent dose conversion
# Type: cell-based
# Conditions: for Efficacy of NX / Efficacy of TX: from fitted single-use equation
# Excerpt: Title: the nitrohydroxyl compound (NX) is an anti-infectious drug. […] Taxol (TX) is an anticancer drug frequently used in clinic. In an NX/TX combined application, the growth of a human hepatocellular carcinoma cell HepG2 is inhibited in an MTT method. A method for quantitatively processing relevant indexes of synergistic/additive/antagonistic effect is described, which provides a reference for research and development of a novel anticancer compound.
# Step 1: a dose-effect relationship table of dose levels of each single drug and each member in a combined group is prepared, and a respective dose-effect relationship curve equation is fitted. For dose-effect relationship data among the NX, the TX and the single drug, the NX+TX at a fixed proportion in combined use (1/1, μg/ml+ng/ml), and dose-effect relationship data of the TX at a fixed concentration (2 ng/ml)+the NX at different concentrations in the combined use, see a table 1.
# Step 2: the dose is converted sequentially, and each line of the dose-effect relationship data formed into an expected additive efficacy curve band under a combined condition is calculated.
# Descriptions on numerical calculation in each column of the table 2: (3) column: data in (2) column are calculated with the formula (2); (4) column: data in (3) column are calculated with the formula (1); (5) column: (1) column+(4) column; (6) column: data in (5) column are calculated with the formula (1).
# Descriptions on numerical calculation in each column: (7) column: data in (1) column are calculated with the formula (1); (8) column: data in (7) column are calculated with the formula (2); (9) column: (2) column+(8) column; (10) column: data in (9) column are calculated with the formula (2); “-” indicates to be beyond the dose-effect range of the TX.
# Descriptions on numerical calculation in each column: (3) column: from the table 2; (4) column: from the table 3; (5) column: from the table 1; (6) column: (5) column data/(3) column data; (7) column: (5) column data/(4) column data; (8) column: standards are referred to the previous CId calculation.
smiles,measurement,setting,value
"O=[N+]([O-])c1ccc(O)c2ncccc12 [NX, nitrohydroxyl compound]",Inhibition rate,NX 0.5 μg/ml single use,5.5%
same,Efficacy of NX,NX 0.5 μg/ml,5.5596%
same,Efficacy of NX,NX 0.6 μg/ml,6.4726%
same,Efficacy of NX,NX 0.7 μg/ml,7.7324%
same,Efficacy of NX,NX 0.8 μg/ml,9.3724%
same,Efficacy of NX,NX 0.9 μg/ml,11.4093%
same,Inhibition rate,NX 1 μg/ml single use,14%
same,Efficacy of NX,NX 1 μg/ml,13.8409%
same,Efficacy of NX,NX 1.2 μg/ml,19.7842%
same,Efficacy of NX,NX 1.4 μg/ml,26.8326%
same,Efficacy of NX,NX 1.6 μg/ml,34.4514%
same,Efficacy of NX,NX 1.8 μg/ml,42.0953%
same,Inhibition rate,NX 2 μg/ml single use,49.2%
same,Efficacy of NX,NX 2 μg/ml,49.3297%
same,Efficacy of NX,NX 2.4 μg/ml,61.6284%
same,Efficacy of NX,NX 2.8 μg/ml,70.7302%
same,Efficacy of NX,NX 3.2 μg/ml,77.1469%
same,Efficacy of NX,NX 3.6 μg/ml,81.6125%
same,Inhibition rate,NX 4 μg/ml single use,84.9%
same,Efficacy of NX,NX 4 μg/ml,84.7367%
same,Efficacy of NX,NX 5 μg/ml,89.1832%
same,Efficacy of NX,NX 6 μg/ml,91.2729%
same,Efficacy of NX,NX 7 μg/ml,92.3603%
same,Inhibition rate,NX 8 μg/ml single use,92.9%
same,Efficacy of NX,NX 8 μg/ml,92.9754%
same,Efficacy of NX,NX 10 μg/ml,93.5845%
same,Efficacy of NX,NX 12 μg/ml,93.8519%
same,Efficacy of NX,NX 14 μg/ml,93.9866%
same,Inhibition rate,NX 16 μg/ml single use,94.1%
same,Efficacy of NX,NX 16 μg/ml,94.0615%
same,NX dose limits of the additive effect,TX fixed dose 2 ng/ml,2.1229−4.5777 μg/ml
"CC(=O)O[C@H]1C(=O)[C@@]2(C)[C@H]([C@H](OC(=O)c3ccccc3)[C@]3(O)C[C@H](OC(=O)[C@H](O)[C@@H](NC(=O)c4ccccc4)c4ccccc4)C(C)=C1C3(C)C)[C@]1(OC(C)=O)CO[C@@H]1C[C@@H]2O [TX, Taxol]",inhibition at 0.0005 µg/mL,"Homo sapiens, HepG2, TX 0.5 ng/ml single use, read-out: Inhibition rate",4.5%
same,inhibition at 0.001 µg/mL,"Homo sapiens, HepG2, TX 1 ng/ml single use, read-out: Inhibition rate",14.1%
same,inhibition at 0.002 µg/mL,"Homo sapiens, HepG2, TX 2 ng/ml single use, read-out: Inhibition rate",32.5%
same,inhibition at 0.004 µg/mL,"Homo sapiens, HepG2, TX 4 ng/ml single use, read-out: Inhibition rate",59.3%
same,inhibition at 0.008 µg/mL,"Homo sapiens, HepG2, TX 8 ng/ml single use, read-out: Inhibition rate",80.3%
same,inhibition at 0.016 µg/mL,"Homo sapiens, HepG2, TX 16 ng/ml single use, read-out: Inhibition rate",87.4%
same,Efficacy of TX,TX 0.5 ng/ml,4.9763%
same,Efficacy of TX,TX 0.6 ng/ml,6.4296%
same,Efficacy of TX,TX 0.7 ng/ml,8.0213%
same,Efficacy of TX,TX 0.8 ng/ml,9.7270%
same,Efficacy of TX,TX 0.9 ng/ml,11.5241%
same,Efficacy of TX,TX 1 ng/ml,13.3922%
same,Efficacy of TX,TX 1.2 ng/ml,17.2688%
same,Efficacy of TX,TX 1.4 ng/ml,21.2305%
same,Efficacy of TX,TX 1.6 ng/ml,25.1792%
same,Efficacy of TX,TX 1.8 ng/ml,29.0423%
same,Efficacy of TX,TX 2 ng/ml,32.7687%
same,Efficacy of TX,TX 2.4 ng/ml,39.6901%
same,Efficacy of TX,TX 2.8 ng/ml,45.8191%
same,Efficacy of TX,TX 3.2 ng/ml,51.1569%
same,Efficacy of TX,TX 3.6 ng/ml,55.7657%
same,Efficacy of TX,TX 4 ng/ml,59.7311%
same,Efficacy of TX,TX 5 ng/ml,67.3956%
same,Efficacy of TX,TX 6 ng/ml,72.7395%
same,Efficacy of TX,TX 7 ng/ml,76.5600%
same,Efficacy of TX,TX 8 ng/ml,79.3653%
same,Efficacy of TX,TX 10 ng/ml,83.1039%
same,Efficacy of TX,TX 12 ng/ml,85.4029%
same,Efficacy of TX,TX 14 ng/ml,86.9144%
same,Efficacy of TX,TX 16 ng/ml,87.9614%
